Legend:
Test in all cases: relative viability (nuclei count vs DMSO), 5 days (fraction); higher = more cells survive
Vismodegib + Pictilisib = compound: CS(=O)(=O)c1ccc(C(=O)Nc2ccc(Cl)c(-c3ccccn3)c2)c(Cl)c1 [Vismodegib] + CS(=O)(=O)N1CCN(Cc2cc3nc(-c4cccc5[nH]ncc45)nc(N4CCOCC4)c3s2)CC1 [Pictilisib] (partner 1 µM)
Method in brief: (§1)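 Five library-drug doses in √10 steps were combined with a fixed anchor-drug dose, or a single drug was given alone, by pin tool to lung cancer cell lines in 1536-well plates the day after seeding. Nuclei were stained and counted after 5 days. Relative viability is the nuclei count in treated wells over that in vehicle wells, taken as the median of duplicate plates.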

Vismodegib + Dasatinib = compound: CS(=O)(=O)c1ccc(C(=O)Nc2ccc(Cl)c(-c3ccccn3)c2)c(Cl)c1 [Vismodegib] + Cc1nc(Nc2ncc(C(=O)Nc3c(C)cccc3Cl)s2)cc(N2CCN(CCO)CC2)n1 [Dasatinib] (partner 0.075 µM)
Method in brief: as §1

Vismodegib + AZD7762 = compound: CS(=O)(=O)c1ccc(C(=O)Nc2ccc(Cl)c(-c3ccccn3)c2)c(Cl)c1 [Vismodegib] + NC(=O)Nc1cc(-c2cccc(F)c2)sc1C(=O)N[C@H]1CCCNC1 [AZD7762] (partner 0.2 µM)
Method in brief: as §1

VE-821 + Olaparib = compound: CS(=O)(=O)c1ccc(-c2cnc(N)c(C(=O)Nc3ccccc3)n2)cc1 [VE-821] + O=C(c1cc(Cc2n[nH]c(=O)c3ccccc23)ccc1F)N1CCN(C(=O)C2CC2)CC1 [Olaparib] (partner 8 µM)
Method in brief: as §1

Row | Cell Line | relative viability (Vismodegib + Pictilisib; first compound 0.08 µM) | relative viability (Vismodegib + Pictilisib; first compound 0.253 µM) | relative viability (Vismodegib + Pictilisib; first compound 0.8 µM) | relative viability (Vismodegib + Pictilisib; first compound 2.53 µM) | relative viability (Vismodegib + Pictilisib; first compound 8 µM) | relative viability (Vismodegib + Dasatinib; first compound 0.08 µM) | relative viability (Vismodegib + Dasatinib; first compound 0.253 µM) | relative viability (Vismodegib + Dasatinib; first compound 0.8 µM) | relative viability (Vismodegib + Dasatinib; first compound 2.53 µM) | relative viability (Vismodegib + Dasatinib; first compound 8 µM) | relative viability (Vismodegib + AZD7762; first compound 0.08 µM) | relative viability (Vismodegib + AZD7762; first compound 0.253 µM) | relative viability (Vismodegib + AZD7762; first compound 0.8 µM) | relative viability (Vismodegib + AZD7762; first compound 2.53 µM) | relative viability (Vismodegib + AZD7762; first compound 8 µM) | relative viability (VE-821 + Olaparib; first compound 0.08 µM) | relative viability (VE-821 + Olaparib; first compound 0.253 µM) | relative viability (VE-821 + Olaparib; first compound 0.8 µM) | relative viability (VE-821 + Olaparib; first compound 2.53 µM) | relative viability (VE-821 + Olaparib; first compound 8 µM)
1 | NCI-H2087 | 0.673 | 0.702 | 0.843 | 0.874 | 0.732 | 0.98 | 0.769 | 0.812 | 0.94 | 0.69 | 1.28 | 1.14 | 1.14 | 1.33 | 1.36 | 0.784 | 0.64 | 0.67 | 0.583 | 0.462
2 | NCI-H2126 | 0.519 | 0.521 | 0.446 | 0.493 | 0.484 | 0.666 | 0.57 | 0.554 | 0.544 | 0.473 | 1.08 | 0.912 | 0.978 | 0.933 | 1.03 | 1.01 | 0.907 | 0.969 | 0.927 | 0.682
3 | NCI-H2170 | 0.301 | 0.286 | 0.306 | 0.347 | 0.325 | 0.542 | 0.623 | 0.627 | 0.62 | 0.639 | 0.913 | 0.838 | 0.974 | 0.866 | 0.909 | 0.656 | 0.487 | 0.395 | 0.276 | 0.21
4 | NCI-H2347 | 0.563 | 0.664 | 0.637 | 0.609 | 0.717 | 0.281 | 0.35 | 0.331 | 0.272 | 0.293 | 0.774 | 0.718 | 0.782 | 0.83 | 0.799 | 0.574 | 0.531 | 0.598 | 0.618 | 0.635
5 | NCI-H2405 | – | 0.441 | 0.373 | 0.341 | 0.531 | 0.214 | 0.228 | 0.212 | 0.235 | 0.239 | 0.739 | 0.711 | 0.637 | 0.706 | 0.73 | 0.937 | 0.828 | 0.846 | 0.997 | 0.805
6 | NCI-H3122 | 0.548 | 0.599 | 0.553 | 0.696 | 0.565 | 0.871 | 0.823 | 0.811 | 0.862 | 0.867 | 0.959 | 0.953 | 0.959 | 0.965 | 0.955 | 0.622 | 0.495 | 0.432 | 0.378 | 0.221
7 | PC-3 [JPC-3] | 0.756 | 0.736 | 0.694 | 0.716 | 0.726 | 0.947 | 0.985 | 1.03 | 0.974 | 0.924 | 0.824 | 0.715 | 0.743 | 0.729 | 0.708 | 1.19 | 1.15 | 1.24 | 1.12 | 0.958
8 | PC-14 | 0.492 | 0.576 | 0.792 | 0.541 | 0.821 | 0.25 | 0.235 | 0.27 | 0.225 | 0.244 | 0.301 | 0.326 | 0.458 | 0.272 | 0.353 | 0.292 | 0.282 | 0.167 | 0.137 | 0.097
9 | RERF-LC-KJ | 0.585 | 0.496 | 0.663 | 0.567 | 0.561 | 0.779 | 0.676 | 0.75 | 0.758 | 0.768 | 1.09 | 0.881 | 0.959 | 0.974 | 0.967 | 0.946 | 0.819 | 0.851 | 0.698 | 0.49

Reference: the supplement of paper PMC10307832
